From US9452986B2, “6-heteroaryloxy- or 6-aryloxy-quinoline-2-carboxamides and method of use” (AbbVie Inc., priority 2014, dated 2016)
Where two headings read alike, the source gives them in different places.

Biological target: recombinant human Nav1.7 (Homo sapiens (Human), UniProt Q15858)
Assay: FRET-based membrane potential assay, recombinant human sodium channel Nav1.7
Format: cell-based
Settings: read-out: FRET-Membrane Potential Nav1.7 IC50
In short: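 Channel activation used veratridine at its EC80, set by a dilution curve each experiment, together with Leiurus scorpion venom, added 3 min after compound. Membrane-potential ratio signals from FLIPR Tetra in HEPES-buffered HBSS were fitted to a four-parameter Hill equation for percent inhibition and IC50.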

[1] = HEK293 cells stably expressing recombinant human Nav1.7, veratridine + scorpion venom depolarization

Sequence of recombinant human Nav1.7 (Q15858 whole entry): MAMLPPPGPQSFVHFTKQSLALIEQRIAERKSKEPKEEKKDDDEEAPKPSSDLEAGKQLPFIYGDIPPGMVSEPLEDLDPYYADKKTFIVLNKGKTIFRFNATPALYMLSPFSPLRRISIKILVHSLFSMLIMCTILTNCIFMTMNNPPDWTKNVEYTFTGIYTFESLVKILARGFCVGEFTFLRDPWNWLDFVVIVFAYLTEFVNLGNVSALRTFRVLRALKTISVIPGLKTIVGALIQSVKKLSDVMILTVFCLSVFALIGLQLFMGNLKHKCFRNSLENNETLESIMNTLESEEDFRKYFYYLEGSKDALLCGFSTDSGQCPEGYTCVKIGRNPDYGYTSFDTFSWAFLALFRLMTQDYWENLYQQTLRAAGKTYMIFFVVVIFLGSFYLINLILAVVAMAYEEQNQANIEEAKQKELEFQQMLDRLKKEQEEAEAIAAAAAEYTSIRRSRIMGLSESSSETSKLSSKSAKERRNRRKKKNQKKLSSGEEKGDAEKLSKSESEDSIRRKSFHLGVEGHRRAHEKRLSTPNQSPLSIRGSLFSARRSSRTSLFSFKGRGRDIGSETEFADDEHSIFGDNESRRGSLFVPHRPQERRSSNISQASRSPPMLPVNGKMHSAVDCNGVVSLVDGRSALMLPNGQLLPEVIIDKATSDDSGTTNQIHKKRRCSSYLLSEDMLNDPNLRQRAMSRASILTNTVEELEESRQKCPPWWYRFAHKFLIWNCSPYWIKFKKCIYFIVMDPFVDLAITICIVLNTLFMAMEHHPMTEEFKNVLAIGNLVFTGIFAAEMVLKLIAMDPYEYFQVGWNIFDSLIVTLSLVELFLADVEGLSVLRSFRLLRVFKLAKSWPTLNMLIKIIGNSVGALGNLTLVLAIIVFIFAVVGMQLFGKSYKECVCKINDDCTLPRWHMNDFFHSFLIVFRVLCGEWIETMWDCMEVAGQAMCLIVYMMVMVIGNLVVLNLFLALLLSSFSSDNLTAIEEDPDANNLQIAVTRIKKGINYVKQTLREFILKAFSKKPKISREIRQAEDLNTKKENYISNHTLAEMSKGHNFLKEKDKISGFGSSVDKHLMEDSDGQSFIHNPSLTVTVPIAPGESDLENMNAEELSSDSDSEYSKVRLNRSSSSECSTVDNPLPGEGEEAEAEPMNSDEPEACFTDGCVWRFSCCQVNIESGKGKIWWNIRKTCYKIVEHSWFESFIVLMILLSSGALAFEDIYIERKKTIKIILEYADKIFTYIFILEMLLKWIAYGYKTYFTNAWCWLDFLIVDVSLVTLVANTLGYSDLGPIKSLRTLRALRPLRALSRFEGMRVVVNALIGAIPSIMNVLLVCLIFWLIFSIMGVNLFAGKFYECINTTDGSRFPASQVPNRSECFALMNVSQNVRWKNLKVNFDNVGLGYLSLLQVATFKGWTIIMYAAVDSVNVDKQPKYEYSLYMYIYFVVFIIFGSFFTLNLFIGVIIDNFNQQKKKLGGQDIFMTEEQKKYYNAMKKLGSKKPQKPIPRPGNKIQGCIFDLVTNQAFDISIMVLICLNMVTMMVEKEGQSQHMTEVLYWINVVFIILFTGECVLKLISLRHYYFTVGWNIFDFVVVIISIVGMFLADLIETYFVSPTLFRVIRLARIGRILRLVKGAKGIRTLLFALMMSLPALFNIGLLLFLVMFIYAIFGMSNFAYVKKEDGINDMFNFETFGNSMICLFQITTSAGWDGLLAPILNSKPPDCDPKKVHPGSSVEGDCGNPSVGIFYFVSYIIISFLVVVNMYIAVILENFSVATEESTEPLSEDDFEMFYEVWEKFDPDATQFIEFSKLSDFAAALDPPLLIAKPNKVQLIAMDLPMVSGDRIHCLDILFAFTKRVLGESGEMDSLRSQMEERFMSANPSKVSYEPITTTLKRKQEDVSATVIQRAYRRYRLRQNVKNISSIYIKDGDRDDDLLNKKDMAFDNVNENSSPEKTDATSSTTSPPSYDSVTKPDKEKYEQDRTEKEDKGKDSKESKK

Row | SMILES | IC50 [1] [µM] | IC50 [µM]
1 | C[C@H]1CN(C(=O)c2ccc3cc(Oc4ccc(C(F)(F)F)nc4)ccc3n2)CCN1 [Example 549, [(3S)-3-methylpiperazin-1-yl](6-{[6-(trifluoromethyl)pyridin-3-yl]oxy}quinolin-2-yl)methanone] | 2.49 | 
2 | O=C(c1ccc2cc(Oc3ccc(C(F)(F)F)cn3)ccc2n1)N1CC(n2cncn2)C1 [Example 204, [3-(1H-1,2,4-triazol-1-yl)azetidin-1-yl](6-{[5-(trifluoromethyl)pyridin-2-yl]oxy}quinolin-2-yl)methanone] | 1.63 | 
3 | Cc1noc(C2CCCN(C(=O)c3ccc4cc(Oc5ccccn5)ccc4n3)C2)n1 (centres unmarked) [Example 78, [3-(3-methyl-1,2,4-oxadiazol-5-yl)piperidin-1-yl][6-(pyridin-2-yloxy)quinolin-2-yl]methanone] |  | > 20
4 | CC(C)[C@@H]1CN(C(=O)c2ccc3cc(Oc4ccc(C(F)(F)F)cn4)ccc3n2)CCN1 [Example 263, [(3R)-3-isopropylpiperazin-1-yl](6-{[5-(trifluoromethyl)pyridin-2-yl]oxy}quinolin-2-yl)methanone] | 0.402 | 
5 | O=C(N[C@@H]1CS(=O)(=O)C[C@H]1O)c1ccc2cc(Oc3ccc(C(F)(F)F)nc3)ccc2n1 [Example 538, N-[(3S,4S)-4-hydroxy-1,1-dioxidotetrahydrothiophen-3-yl]-6-{[6-(trifluoromethyl)pyridin-3-yl]oxy}quinoline-2-carboxamide] | 3.16 | 
6 | CC(=O)Nc1ncc(S(=O)(=O)N2CCN(C(=O)c3ccc4cc(Oc5ccc(C(F)(F)F)cn5)ccc4n3)CC2)s1 [Example 389, N-[5-({4-[(6-{[5-(trifluoromethyl)pyridin-2-yl]oxy}quinolin-2-yl)carbonyl]piperazin-1-yl}sulfonyl)-1,3-thiazol-2-yl]acetamide] | 9.22 | 
7 | O=C(c1ccc2cc(Oc3ccccn3)ccc2n1)N1CCOCC1 [Example 76, morpholin-4-yl[6-(pyridin-2-yloxy)quinolin-2-yl]methanone] | > 20 | 
8 | O=C(c1ccc2cc(Oc3cnc(C(F)(F)F)cn3)ccc2n1)N1CCNCC1 [Example 245, piperazin-1-yl(6-{[5-(trifluoromethyl)pyrazin-2-yl]oxy}quinolin-2-yl)methanone] |  | 4.63
9 | CN1CC(NC(=O)c2ccc3cc(Oc4ccc(C(F)(F)F)cn4)ccc3n2)CC1=O (centres unmarked) [Example 448, N-(1-methyl-5-oxopyrrolidin-3-yl)-6-{[5-(trifluoromethyl)pyridin-2-yl]oxy}quinoline-2-carboxamide] | 0.371 | 
10 | CC1(O)CCN(C(=O)c2ccc3cc(Oc4ccc(C(F)(F)F)cn4)ccc3n2)CC1 [Example 255, (4-hydroxy-4-methylpiperidin-1-yl)(6-{[5-(trifluoromethyl)pyridin-2-yl]oxy}quinolin-2-yl)methanone] | 12.1 | 
11 | CC(C)(O)CNC(=O)c1ccc2cc(Oc3ccc(C(F)(F)F)nc3)ccc2n1 [Example 471, N-(2-hydroxy-2-methylpropyl)-6-{[6-(trifluoromethyl)pyridin-3-yl]oxy}quinoline-2-carboxamide] | 2.4 | 
12 | N[C@@H]1[C@H]2CN(C(=O)c3ccc4cc(Oc5ccc(C(F)(F)F)nc5)ccc4n3)C[C@@H]12 [Example 528, meso-[(1R,5S,6s)-6-amino-3-azabicyclo[3.1.0]hex-3-yl](6-{[6-(trifluoromethyl)pyridin-3-yl]oxy}quinolin-2-yl)methanone] | 2.92 | 
13 | CC[C@@H]1CN(C(=O)c2ccc3cc(Oc4ccc(C(F)(F)F)nc4)ccc3n2)CCN1 [Example 543, [(3R)-3-ethylpiperazin-1-yl](6-{[6-(trifluoromethyl)pyridin-3-yl]oxy}quinolin-2-yl)methanone] |  | 0.398
14 | O=C(NC1CC(F)(F)C1)c1ccc2cc(Oc3ccc(C(F)(F)F)nc3)ccc2n1 [Example 555, N-(3,3-difluorocyclobutyl)-6-{[6-(trifluoromethyl)pyridin-3-yl]oxy}quinoline-2-carboxamide] | 2.7 | 
15 | O=C(c1ccc2cc(Oc3ccc(C(F)(F)F)cn3)ccc2n1)N1C[C@@H](F)C[C@@H]1c1cc(F)ccc1F [Example 179, [(2R,4S)-2-(2,5-difluorophenyl)-4-fluoropyrrolidin-1-yl](6-{[5-(trifluoromethyl)pyridin-2-yl]oxy}quinolin-2-yl)methanone] | 0.684 | 
16 | O=C(NC1CCNCC1)c1ccc2cc(Oc3ccc(C(F)(F)F)cn3)ccc2n1 [Example 264, N-(piperidin-4-yl)-6-{[5-(trifluoromethyl)pyridin-2-yl]oxy}quinoline-2-carboxamide] | 3.21 | 
17 | O=C(NCCC(F)(F)F)c1ccc2cc(Oc3ccc(C(F)(F)F)cn3)ccc2n1 [Example 355, 6-{[5-(trifluoromethyl)pyridin-2-yl]oxy}-N-(3,3,3-trifluoropropyl)quinoline-2-carboxamide] | 1.27 | 
18 | O=C(NC1CNC1)c1ccc2cc(Oc3ccc(C(F)(F)F)cn3)ccc2n1 [Example 216, N-(azetidin-3-yl)-6-{[5-(trifluoromethyl)pyridin-2-yl]oxy}quinoline-2-carboxamide] | 1.67 | 

Row | SMILES | IC50 [1] [µM] | IC50 [µM]
19 | O=C(c1ccc2cc(Oc3ccc(C(F)(F)F)cn3)ccc2n1)N1CCc2nc[nH]c(=O)c2C1 [Example 342, 6-[(6-{[5-(trifluoromethyl)pyridin-2-yl]oxy}quinolin-2-yl)carbonyl]-5,6,7,8-tetrahydropyrido[4,3-d]pyrimidin-4(3H)-one] | 3.38 | 
20 | N#Cc1ccc(Oc2ccc3nc(C(=O)NCc4cccc(OC(F)(F)F)c4)ccc3c2)cc1 [Example 102, 6-(4-cyanophenoxy)-N-[3-(trifluoromethoxy)benzyl]quinoline-2-carboxamide] | > 20 | 
21 | CN(C)C(=O)[C@H](Cc1ccccc1)NC(=O)c1ccc2cc(Oc3ccc(C(F)(F)F)cn3)ccc2n1 [Example 501, N-[(2S)-1-(dimethylamino)-1-oxo-3-phenylpropan-2-yl]-6-{[5-(trifluoromethyl)pyridin-2-yl]oxy}quinoline-2-carboxamide] |  | 0.734
22 | O=C(NC1CC(F)C1)c1ccc2cc(Oc3ccc(C(F)F)cn3)ccc2n1 (centres unmarked) [Example 617, 6-{[5-(difluoromethyl)pyridin-2-yl]oxy}-N-(3-fluorocyclobutyl)quinoline-2-carboxamide] | 2.78 | 
23 | O=C(c1ccc2cc(Oc3ccc(C(F)(F)F)cn3)ccc2n1)N1CCN(c2cccnn2)CC1 [Example 271, [4-(pyridazin-3-yl)piperazin-1-yl](6-{[5-(trifluoromethyl)pyridin-2-yl]oxy}quinolin-2-yl)methanone] |  | 11.2
24 | CC(C)COC(=O)N1CCN(C(=O)c2ccc3cc(Oc4ccc(C(F)(F)F)cn4)ccc3n2)CC1 [Example 293, isobutyl 4-[(6-{[5-(trifluoromethyl)pyridin-2-yl]oxy}quinolin-2-yl)carbonyl]piperazine-1-carboxylate] | 3.32 | 
25 | CC(C)(O)CNC(=O)c1ccc2cc(Oc3ccc(C#N)cc3)ccc2n1 [Example 122, 6-(4-cyanophenoxy)-N-(2-hydroxy-2-methylpropyl)quinoline-2-carboxamide] | 2.49 | 
26 | O=C(c1ccc2cc(Oc3ccc(C(F)(F)F)cn3)ccc2n1)N1CCC2(CC1)CC(O)C2 [Example 354, (2-hydroxy-7-azaspiro[3.5]non-7-yl)(6-{[5-(trifluoromethyl)pyridin-2-yl]oxy}quinolin-2-yl)methanone] | 12.4 | 
27 | O=C(c1ccc2cc(Oc3ccc(C(F)(F)F)cn3)ccc2n1)N1CC2(C1)OCCO2 [Example 476, 5,8-dioxa-2-azaspiro[3.4]oct-2-yl(6-{[5-(trifluoromethyl)pyridin-2-yl]oxy}quinolin-2-yl)methanone] | 3.92 | 
28 | CCOCC1(F)CCN(C(=O)c2ccc3cc(Oc4ccc(C(F)(F)F)cn4)ccc3n2)C1 (centres unmarked) [Example 488, [3-(ethoxymethyl)-3-fluoropyrrolidin-1-yl](6-{[5-(trifluoromethyl)pyridin-2-yl]oxy}quinolin-2-yl)methanone] |  | 0.526
29 | CN(C)C(=O)N1CCN(C(=O)c2ccc3cc(Oc4ccc(C(F)(F)F)cn4)ccc3n2)CC1 [Example 187, N,N-dimethyl-4-[(6-{[5-(trifluoromethyl)pyridin-2-yl]oxy}quinolin-2-yl)carbonyl]piperazine-1-carboxamide] | > 20 | 
30 | O=C(c1ccc2cc(Oc3ccc(C(F)(F)F)cn3)ccc2n1)N1CCC[C@H]1CO [Example 237, [(2S)-2-(hydroxymethyl)pyrrolidin-1-yl](6-{[5-(trifluoromethyl)pyridin-2-yl]oxy}quinolin-2-yl)methanone] |  | 3.07
31 | O=C(c1ccc2cc(Oc3ccc(C(F)(F)F)cn3)ccc2n1)N1CCN(S(=O)(=O)C2CCOCC2)CC1 [Example 383, [4-(tetrahydro-2H-pyran-4-ylsulfonyl)piperazin-1-yl](6-{[5-(trifluoromethyl)pyridin-2-yl]oxy}quinolin-2-yl)methanone] | > 20 | 
32 | O=C(c1ccc2cc(Oc3ccc(C(F)(F)F)cn3)ccc2n1)N1CC2CNCCN2C1=O (centres unmarked) [Example 189, 2-[(6-{[5-(trifluoromethyl)pyridin-2-yl]oxy}quinolin-2-yl)carbonyl]hexahydroimidazo[1,5-a]pyrazin-3(2H)-one] | 15.1 | 
33 | C[C@@H]1CN2CC(F)(F)C[C@@H]2CN1C(=O)c1ccc2cc(Oc3ccc(C(F)(F)F)cn3)ccc2n1 [Example 358, [(3R,8aR)-7,7-difluoro-3-methylhexahydropyrrolo[1,2-a]pyrazin-2(1H)-yl](6-{[5-(trifluoromethyl)pyridin-2-yl]oxy}quinolin-2-yl)methanone] | 1.31 | 
34 | O=C(c1ccc2cc(Oc3ccc(C(F)(F)F)cn3)ccc2n1)N1CCn2cncc2C1 [Example 173, 5,6-dihydroimidazo[1,5-a]pyrazin-7(8H)-yl(6-{[5-(trifluoromethyl)pyridin-2-yl]oxy}quinolin-2-yl)methanone] | 0.833 | 
35 | O=C(c1ccc2cc(Oc3ccc(C(F)F)cn3)ccc2n1)N1CCNC2(CC2)C1 [Example 558, 4,7-diazaspiro[2.5]oct-7-yl(6-{[5-(difluoromethyl)pyridin-2-yl]oxy}quinolin-2-yl)methanone] |  | 4.49
